# Measurements as given in PMC6017319, “Potent GH20 N-Acetyl-β-D-hexosaminidase Inhibitors: N-Substituted 3-acetamido-4-amino-5-hydroxymethyl-cyclopentanediols” (Molecules : A Journal of Synthetic Chemistry and Natural …, 2018).
# Read-outs that look alike come from different tables or passages of the source.
# Key:
# [1] = target: T1, human lysosomal N-acetyl-β-hexosaminidase A (Homo sapiens, UniProt P06865); assay: Human N-acetyl-β-hexosaminidase A activity in fibroblast homogenate (4-MU N-acetyl-β-glucosaminide-6-sulfate substrate); format: biochemical; details: normal human skin fibroblast homogenate, pH 4.4, 37 °C, 60 min; read-out: IC50 with human lysosomal N-acetyl-β-D-hexosaminidase A
# T1 construct: endogenous in cells; host or cells: human skin fibroblasts (wild type), cell homogenate
# T1 sequence (P06865 89-529): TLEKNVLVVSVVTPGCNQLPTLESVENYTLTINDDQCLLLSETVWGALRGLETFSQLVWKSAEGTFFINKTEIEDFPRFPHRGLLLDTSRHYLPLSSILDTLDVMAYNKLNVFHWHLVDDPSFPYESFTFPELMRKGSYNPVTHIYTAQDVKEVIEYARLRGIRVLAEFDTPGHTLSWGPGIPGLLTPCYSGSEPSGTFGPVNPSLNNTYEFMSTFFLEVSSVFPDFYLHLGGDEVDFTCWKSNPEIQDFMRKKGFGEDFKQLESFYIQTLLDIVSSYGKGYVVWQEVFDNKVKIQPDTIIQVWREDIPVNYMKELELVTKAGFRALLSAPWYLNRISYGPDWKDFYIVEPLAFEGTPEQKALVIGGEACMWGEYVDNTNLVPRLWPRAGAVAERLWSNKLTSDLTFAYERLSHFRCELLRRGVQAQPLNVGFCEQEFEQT
# T1 sequence (P07686 122-311 partner limits assumed): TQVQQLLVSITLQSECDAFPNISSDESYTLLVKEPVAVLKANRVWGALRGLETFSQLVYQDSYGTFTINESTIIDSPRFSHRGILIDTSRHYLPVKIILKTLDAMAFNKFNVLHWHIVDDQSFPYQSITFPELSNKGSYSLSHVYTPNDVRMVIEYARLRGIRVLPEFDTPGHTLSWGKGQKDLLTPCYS
# T1 sequence (P07686 315-556 partner limits assumed): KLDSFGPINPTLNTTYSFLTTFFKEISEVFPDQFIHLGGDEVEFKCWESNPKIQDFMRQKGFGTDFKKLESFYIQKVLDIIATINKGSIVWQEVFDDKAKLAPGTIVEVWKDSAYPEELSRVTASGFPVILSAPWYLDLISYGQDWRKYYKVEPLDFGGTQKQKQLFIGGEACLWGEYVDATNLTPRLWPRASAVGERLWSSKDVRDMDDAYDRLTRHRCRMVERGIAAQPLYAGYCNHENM
# From the text: All cells used in this study were between the third and nineteenth passages.
# [2] = target: T2, Streptomyces plicatus N-acetyl-β-hexosaminidase (SpHex) (Streptomyces plicatus, UniProt O85361); parameters: method as in PMID 11828466; details: with the same enzyme; read-out: Ki with SpHex (reference compound); cited from earlier work
# T2 construct: made in house; host or cells: E. coli
# T2 sequence (O85361 1-506): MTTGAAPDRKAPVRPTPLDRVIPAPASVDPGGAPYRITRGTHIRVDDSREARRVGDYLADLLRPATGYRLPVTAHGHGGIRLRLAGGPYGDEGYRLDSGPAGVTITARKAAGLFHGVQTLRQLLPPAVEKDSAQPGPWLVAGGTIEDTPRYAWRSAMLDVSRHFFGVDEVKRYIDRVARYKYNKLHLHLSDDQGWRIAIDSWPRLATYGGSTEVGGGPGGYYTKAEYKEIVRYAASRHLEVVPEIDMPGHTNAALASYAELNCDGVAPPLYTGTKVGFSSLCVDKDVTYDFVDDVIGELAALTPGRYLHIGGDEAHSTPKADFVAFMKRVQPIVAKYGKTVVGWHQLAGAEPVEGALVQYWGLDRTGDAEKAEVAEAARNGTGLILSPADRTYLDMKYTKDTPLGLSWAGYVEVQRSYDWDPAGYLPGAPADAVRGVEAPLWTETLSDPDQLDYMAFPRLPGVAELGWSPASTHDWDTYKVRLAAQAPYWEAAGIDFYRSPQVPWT
# [3] = target: T2, Streptomyces plicatus N-acetyl-β-hexosaminidase (SpHex); assay: SpHex kinetic inhibition assay (4-nitrophenyl N-acetyl-β-D-glucosaminide substrate, competitive model); format: biochemical
# Method: Streptomyces plicatus N-acetyl-β-hexosaminidase, SpHex, was expressed and purified in E. coli as described previously. Kinetic studies were performed at 25 °C in the assay buffer (sodium phosphate (50 mM), sodium citrate (50 mM), NaCl (100 mM), BSA (2 mg/mL), pH = 6.0). The enzyme was incubated with different concentrations of the inhibitors for 2–5 min prior to the start of the reaction by addition of the substrate (4-nitrophenyl N-acetyl-β-D-glucosaminide) and the initial rates were measured by monitoring the increase in absorbance at 405 nm for three to five minutes using a microplate reader (Synergy H1, BioTek, VT, USA). Ki determinations were performed using two or three different substrate concentrations. For each one of these substrate concentrations a range of five to eight different inhibitor concentrations bracketing the ultimately determined Ki value were used. Dixon plots (1/rate vs [I]) were constructed to validate the use of a competitive inhibition model. The data were then fit to a competitive inhibition model using non-linear regression analysis with GraFit 7.0 (Erithacus Software, UK). Assays were done twice using enzyme concentrations of 0.3 nM and 0.03 nM respectively in order to check compliance with the assumptions of Michaelis Menten kinetics ([E] << [I]). In addition, for compound 25, the assays were done a third time with the concentration of enzyme lowered to 0.003 nM. In all cases, the Ki values were in good agreement.
IC50 [1] [nM],"Ki ([3]; 25 °C, pH 6.0, competitive inhibition model, read-out: Ki-values with SpHex) [nM]",Ki [3] [nM],SMILES,Ki [2] [nM]
31000,–,–,"CC(=O)NC1CNC(CO)C(O)C1O (centres unmarked) [compound 1, 2-acetamido-1,2-dideoxynojirimycin, reference compound]",80000
–,0.7,–,CC(=O)NC1C(N)C(CO)C(O)C1O (centres unmarked) [compound 20],–
880,–,0.6,CCCCCCNC1C(CO)C(O)C(O)C1NC(C)=O (centres unmarked) [compound 21],–
–,–,0.7,"COC(=O)CCCCCNC1C(CO)C(O)C(O)C1NC(C)=O [compound 22, (1S,2R,3S,4R,5R)-N-(Methoxycarbonyl)pentyl-3-acetamido-4-amino-5-hydroxymethyl-cyclopentanetriol]",–
300,–,0.06,"CC(=O)NC1C(O)C(O)C(CO)C1NCCCCCCNS(=O)(=O)c1cccc2c(N(C)C)cccc12 [compound 25, (1S,2R,3S,4R,5R)-N-(6-Dansylamino)hexyl-3-acetamido-4-amino-5-hydroxymethyl-cyclopentanetriol]",–
